Like-named read-outs stand apart in the source and are kept apart here.
What was measured:
[1] = molecular target: T1, hOCT1 (Homo sapiens, UniProt O15245); assay: [3H]MPP+ uptake inhibition assay, HEK293 cells stably expressing hOCT1; format: cell-based; conditions: for Effect on substrate uptake by hOCT1 (in words): [3H]MPP+ uptake, HEK293 hOCT1
T1 construct: expressed in transfected cells
T1 sequence (O15245 1-554): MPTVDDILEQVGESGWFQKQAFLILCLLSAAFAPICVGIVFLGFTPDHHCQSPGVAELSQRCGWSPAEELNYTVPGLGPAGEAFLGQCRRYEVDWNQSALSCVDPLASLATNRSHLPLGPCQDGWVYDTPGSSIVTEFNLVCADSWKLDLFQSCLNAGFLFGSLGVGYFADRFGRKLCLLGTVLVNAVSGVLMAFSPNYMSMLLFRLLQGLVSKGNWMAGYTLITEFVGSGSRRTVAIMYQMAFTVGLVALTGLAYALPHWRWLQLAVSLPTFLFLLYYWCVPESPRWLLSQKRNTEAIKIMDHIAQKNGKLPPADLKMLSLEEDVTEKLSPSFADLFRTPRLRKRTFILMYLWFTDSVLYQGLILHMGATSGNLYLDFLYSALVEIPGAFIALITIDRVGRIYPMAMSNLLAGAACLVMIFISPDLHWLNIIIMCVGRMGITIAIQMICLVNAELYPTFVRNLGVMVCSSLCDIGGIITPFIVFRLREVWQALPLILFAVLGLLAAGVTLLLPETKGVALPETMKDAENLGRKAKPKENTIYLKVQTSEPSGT
Experimental: (§1) HEK293 cells were transfected with a plasmid, encoding the transporter of interest and an N-terminal YFP-tag, carried out using jetPRIME ^© (Polyplus Transfection; (VWR International GmbH, Vienna, Austria)) reagent (for a 10 cm dish with 1–2 × 10^6 cells in 10 mL serum containing medium at 60–80% confluency: 500 μ L jetPRIME ^© buffer, 10 μ g DNA and 20 μ L jetPRIME ^© reagent) and selection pressure maintained for two weeks [2, 54, 55]. Subsequently, 500,000 cells were FACS-sorted (fluorescence-activated cell sorting) according to expression level to establish cell lines stably expressing the protein of interest. […] For uptake inhibition assays, cells were cultured at a subconfluent (80–90% density) state in high-glucose Dulbecco’s Modified Eagle Medium (DMEM ), enriched with 10% heat-inactivated Fetal Bovine Serum (FBS) and penicillin/streptomycin (PS; 100 U × 100 mL ^−1 , each). Selection pressure was maintained by the addition of geneticin (50 mg × mL ^−1 ) at 37 ^∘ C and 5% CO 2 in a humidified incubator. At a density of 60,000 cells per well, HEK293 cells expressing the respective transporter were seeded onto poly-D-lysine-coated wells 24 h prior to uptake inhibition experiments in a final volume of 200 μ L per well.
(§2) Prior to the addition of the respective compounds, DMEM was removed from all wells and replaced with 200 μ L of Krebs-HEPES-buffer (KHB; 10 mM HEPES, 120 mM NaCl, 3 mM KCl, 2 mM CaCl 2 , 2 mM MgSO 4 and 20 mM D-glucose, pH adjusted to 7.3) at room temperature. Cells were exposed to a pre-incubation solution containing the compound of interest in the respective concentration (dissolved in Krebs-HEPES-buffer) for 10 min with a total volume of 50 μ L, which was then replaced with a 50 μ L uptake solution containing 0.05 μ M of tritiated 1-methyl-4-phenylpyridinium ([ ^3 H]MPP ^+ ) as substrate, and the compound of interest in respective concentrations, for 10 minutes each. Finally, uptake was terminated by washing with 200 μ L of ice-cold (4 ^∘ C) KHB, after which cells were lysed with 200 μ L of 1% sodium dodecyl sulphate (SDS). After transferring the solution of each well into 6 mL counting vials containing 2 mL of scintillation cocktail, the vials were measured with a beta-scintillation counter for quantification of the uptake of tritiated substrate. […] To obtain specific data, non-specific uptake was assessed in the presence of 100 μ M D22 and subtracted from the total data. The 100% values were defined as uptake in the absence of a tested substance, defining maximal uptake capacity. Inhibitions of the compound of interest were described as a percentage of the maximal uptake capacity.
(§3) Half-maximal inhibitory concentration ( IC50 ) values of each substance were calculated and plotted using GraphPad Prism 8.4.3 (GraphPad Software Inc., San Diego, CA, USA). IC50 was determined by non-linear regression, solving the equation Y=Bottom+(Top−Bottom)/(1+10^X−LogEC50) . […] All data stem from a minimum of three separate experiments (n≥ 3) executed in triplicates and are shown as mean ± SD.

[2] = molecular target: T2, hOCT2 (Homo sapiens, UniProt O15244); assay: [3H]MPP+ uptake inhibition assay, HEK293 cells stably expressing hOCT2; format: cell-based; conditions: for Effect on substrate uptake by hOCT2 (in words): [3H]MPP+ uptake, HEK293 hOCT2
T2 construct: expressed in transfected cells
T2 sequence (O15244 1-555): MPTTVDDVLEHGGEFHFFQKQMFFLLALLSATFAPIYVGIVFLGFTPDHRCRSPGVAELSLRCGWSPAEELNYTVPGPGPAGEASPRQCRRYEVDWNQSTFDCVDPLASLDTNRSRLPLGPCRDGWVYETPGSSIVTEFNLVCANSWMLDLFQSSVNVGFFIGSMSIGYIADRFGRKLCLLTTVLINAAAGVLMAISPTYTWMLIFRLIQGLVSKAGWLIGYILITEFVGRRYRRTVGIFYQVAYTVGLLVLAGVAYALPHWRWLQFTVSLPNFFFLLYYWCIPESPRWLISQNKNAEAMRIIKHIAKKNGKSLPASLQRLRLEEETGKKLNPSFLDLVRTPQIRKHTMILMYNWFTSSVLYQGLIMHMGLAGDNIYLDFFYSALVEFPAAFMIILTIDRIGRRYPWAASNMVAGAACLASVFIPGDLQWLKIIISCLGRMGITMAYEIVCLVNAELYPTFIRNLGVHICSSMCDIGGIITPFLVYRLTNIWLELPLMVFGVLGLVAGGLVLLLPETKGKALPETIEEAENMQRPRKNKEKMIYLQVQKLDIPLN
Experimental: as §1, §2, §3

[3] = molecular target: T3, hOCT3 (Homo sapiens, UniProt O75751); assay: [3H]MPP+ uptake inhibition assay, HEK293 cells stably expressing hOCT3; format: cell-based; conditions: for Effect on substrate uptake by hOCT3 (in words): [3H]MPP+ uptake, HEK293 hOCT3
T3 construct: expressed in transfected cells
T3 sequence (O75751 1-556): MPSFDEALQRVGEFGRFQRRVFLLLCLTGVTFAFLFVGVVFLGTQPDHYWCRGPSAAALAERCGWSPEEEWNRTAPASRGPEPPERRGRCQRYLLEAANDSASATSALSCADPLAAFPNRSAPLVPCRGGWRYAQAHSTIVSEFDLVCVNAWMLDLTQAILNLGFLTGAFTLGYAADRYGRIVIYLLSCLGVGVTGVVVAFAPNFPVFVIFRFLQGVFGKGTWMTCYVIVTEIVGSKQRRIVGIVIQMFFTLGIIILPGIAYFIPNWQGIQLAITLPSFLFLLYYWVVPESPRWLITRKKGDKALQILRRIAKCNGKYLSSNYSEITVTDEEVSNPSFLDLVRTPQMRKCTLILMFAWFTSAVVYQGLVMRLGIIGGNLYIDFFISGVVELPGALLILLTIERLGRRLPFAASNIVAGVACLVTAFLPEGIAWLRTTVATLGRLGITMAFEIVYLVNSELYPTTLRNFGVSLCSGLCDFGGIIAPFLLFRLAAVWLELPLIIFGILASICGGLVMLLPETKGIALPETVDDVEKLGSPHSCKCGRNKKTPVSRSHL
Experimental: as §1, §2, §3

[4] = molecular target: T4, hPMAT (Homo sapiens, UniProt Q7RTT9); assay: [3H]MPP+ uptake inhibition assay, HEK293 cells stably expressing hPMAT; format: cell-based; conditions: for Effect on substrate uptake by hPMAT (in words): [3H]MPP+ uptake, HEK293 hPMAT
T4 construct: expressed in transfected cells
T4 sequence (Q7RTT9 1-530): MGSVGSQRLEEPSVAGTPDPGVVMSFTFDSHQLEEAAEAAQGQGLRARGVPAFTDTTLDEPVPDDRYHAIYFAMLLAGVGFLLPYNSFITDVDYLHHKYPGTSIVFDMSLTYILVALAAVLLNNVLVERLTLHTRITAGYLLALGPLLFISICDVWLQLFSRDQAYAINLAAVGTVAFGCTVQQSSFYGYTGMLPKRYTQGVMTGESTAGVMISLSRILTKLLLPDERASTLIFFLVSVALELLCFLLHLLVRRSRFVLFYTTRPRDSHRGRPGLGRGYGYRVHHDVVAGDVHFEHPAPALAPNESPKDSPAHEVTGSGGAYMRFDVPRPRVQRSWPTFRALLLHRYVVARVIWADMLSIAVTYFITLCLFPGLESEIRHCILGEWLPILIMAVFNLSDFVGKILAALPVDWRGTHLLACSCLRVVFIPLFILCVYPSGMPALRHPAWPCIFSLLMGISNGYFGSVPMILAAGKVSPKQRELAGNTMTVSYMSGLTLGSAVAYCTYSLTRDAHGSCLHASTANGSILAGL
Experimental: as §1, §2, §3

[5] = molecular target: T1, hOCT1; conditions: read-out: IC50 literature hOCT1; Table S1; supplementary reference list; cited from earlier work
[6] = HEK293 stably expressing hPMAT, 0.05 μM [3H]MPP+, 10 min pre-incubation, 10 min uptake, brackets in Table S1 = 95%-CI, n.s. = non-significant
[7] = HEK293 stably expressing hOCT1, 0.05 μM [3H]MPP+, 10 min pre-incubation, 10 min uptake, brackets in Table S1 = 95%-CI, n.s. = non-significant, read-out: IC50 hOCT1 (inhibitory potency, [3H]MPP+ uptake)
[8] = HEK293 stably expressing hOCT2, 0.05 μM [3H]MPP+, 10 min pre-incubation, 10 min uptake, brackets in Table S1 = 95%-CI, n.s. = non-significant, read-out: IC50 hOCT2 (inhibitory potency, [3H]MPP+ uptake)
[9] = HEK293 stably expressing hPMAT, 0.05 μM [3H]MPP+, 10 min pre-incubation, 10 min uptake, brackets in Table S1 = 95%-CI, n.s. = non-significant, read-out: IC50 hPMAT (inhibitory potency, [3H]MPP+ uptake)
[10] = HEK293 stably expressing hOCT3, 0.05 μM [3H]MPP+, 10 min pre-incubation, 10 min uptake, brackets in Table S1 = 95%-CI, n.s. = non-significant
[11] = HEK293 stably expressing hOCT1, 0.05 μM [3H]MPP+, 10 min pre-incubation, 10 min uptake, brackets in Table S1 = 95%-CI, n.s. = non-significant
[12] = HEK293 stably expressing hOCT2, 0.05 μM [3H]MPP+, 10 min pre-incubation, 10 min uptake, brackets in Table S1 = 95%-CI, n.s. = non-significant

Row | Compound | IC50 [1] [µM] | IC50 [2] [µM] | IC50 hPMAT (inhibitory potency, [3H]MPP+ uptake) [4, 6] | IC50 hOCT3 (inhibitory potency, [3H]MPP+ uptake) [3, 10] | Effect on substrate uptake by hOCT2 (in words) [2] | Effect on substrate uptake by hOCT3 (in words) [3] | Effect on substrate uptake by hPMAT (in words) [4] | also measured
1 | CNC1(c2ccccc2F)CCCCC1=O (stereo not drawn) [2-Fluoro-deschloroketamine, 2-fluoro-deschloroketamine] | 14.1 | 19.2 | n.s. | – | – | – | – | IC50 [3]: 265 µM
2 | CCN1/C(=C/c2ccc3ccccc3[n+]2CC)C=Cc2ccccc21 [Decynium-22] | – | – | – | – | – | – | – | IC50 [1, 7]: 2.66 µM; IC50 [2, 8]: 4.56 µM; IC50 ([3]; HEK293 stably expressing hOCT3, 0.05 μM [3H]MPP+, 10 min pre-incubation, 10 min uptake, brackets in Table S1 = 95%-CI, n.s. = non-significant, read-out: IC50 hOCT3 (inhibitory potency, [3H]MPP+ uptake)): 0.16 µM; IC50 [4, 9]: 0.35 µM
3 | COC(=O)C(c1ccccc1)C1CCCCN1 (stereo not drawn) [Methylphenidate, methylphenidate] | 0.36 | 28.8 | n.s. | n.s. | – | – | – | –
4 | NC(=O)C[S+]([O-])C(c1ccccc1)c1ccccc1 (stereo not drawn) [Modafinil, modafinil] | – | – | n.s. | n.s. | did not interact | did not interact | did not interact | IC50 hOCT1 (inhibitory potency, [3H]MPP+ uptake) [1, 11]: n.s.; Effect on substrate uptake by hOCT1 (in words) [1]: did not interact; IC50 hOCT2 (inhibitory potency, [3H]MPP+ uptake) [2, 12]: n.s.
5 | CN(C)C[C@H]1CCCC[C@]1(O)c1cccc(O)c1 [O-Desmethyltramadol, O-desmethyltramadol] | 24.2 | 372 | n.s. | n.s. | – | No interaction | – | IC50 [5]: 172 µM
6 | CCC1(c2ccccc2)C(=O)NC(=O)NC1=O [Phenobarbital, phenobarbital] | – | – | – | n.s. | increased uptake of substrate | not interacting | not interacting | IC50 hOCT1 (inhibitory potency, [3H]MPP+ uptake) [1, 11]: n.s.; Effect on substrate uptake by hOCT1 (in words) [1]: increased uptake of substrate; IC50 hOCT2 (inhibitory potency, [3H]MPP+ uptake) [2, 12]: n.s.; IC50 [4]: 1030 µM
7 | CN(C)CCc1c[nH]c2cccc(O)c12 [Psilocin, psilocin] | 63.5 | – | – | n.s. | did not inhibit | did not inhibit | did not inhibit | Effect on substrate uptake by hOCT1 (in words) [1]: did not inhibit; IC50 hOCT2 (inhibitory potency, [3H]MPP+ uptake) [2, 12]: n.s.; IC50 [4]: 698 µM
8 | CCC[C@H](C(=O)c1ccccc1)N1CCCC1 [R- α -PVP, R- α -pyrrolidinovalerophenone] | 2.15 | 13.1 | n.s. | – | – | – | increased uptake of substrate | IC50 [3]: 1020 µM
9 | CN(C)CCC[C@]1(c2ccc(F)cc2)OCc2cc(C#N)ccc21 [R-Citalopram, R-citalopram] | – | – | – | – | – | – | – | IC50 [1, 7]: 5.11 µM; IC50 [2, 8]: 46.6 µM; IC50 [4, 9]: 58.3 µM
10 | CCC[C@@H](C(=O)c1ccccc1)N1CCCC1 [S- α -PVP, S- α -pyrrolidinovalerophenone] | 1.07 | 15 | n.s | – | – | – | increased uptake of substrate | IC50 [3]: 457 µM
11 | CN(C)CCC[C@@]1(c2ccc(F)cc2)OCc2cc(C#N)ccc21 [S-Citalopram, S-citalopram] | – | – | – | – | – | – | – | IC50 [1, 7]: 7.15 µM; IC50 [2, 8]: 59.9 µM; IC50 [4, 9]: 160 µM
12 | COc1cccc(C2(O)CCCCC2CN(C)C)c1 (stereo not drawn) [Tramadol, tramadol] | 5.6 | 64.1 | – | n.s. | fails to fully inhibit | No interaction | fails to fully inhibit | IC50 [4]: 74.2 µM; IC50 [5]: 30 µM

From paper PMC8657792, “Interaction Profiles of Central Nervous System Active Drugs at Human Organic Cation Transporters 1–3 and Human Plasma Membrane Monoamine Transporter” (International Journal of Molecular Sciences, 2021)
